Test results taken from ChEMBL document CHEMBL1150530, “Thromboxane receptor antagonism combined with thromboxane synthase inhibition. 6. 4-substituted 3-pyridinylalkanoic acids” (Bioorg Med Chem Lett, 1992).

Columns and labels:
Homo sapiens [1] = species on record: Homo sapiens; test: Inhibitory concentration against U 46619 induced aggregation of human washed platelets(WP); format: functional
Homo sapiens [2] = species on record: Homo sapiens; test: Inhibitory concentration against U 46619 induced aggregation of human platelet rich plasma(PRP); format: functional
Thromboxane-A synthase [3] = target: T1, Thromboxane-A synthase (Homo sapiens, UniProt P24557); test: Inhibitory concentration against thromboxane synthase enzyme
T1 sequence (P24557 whole entry): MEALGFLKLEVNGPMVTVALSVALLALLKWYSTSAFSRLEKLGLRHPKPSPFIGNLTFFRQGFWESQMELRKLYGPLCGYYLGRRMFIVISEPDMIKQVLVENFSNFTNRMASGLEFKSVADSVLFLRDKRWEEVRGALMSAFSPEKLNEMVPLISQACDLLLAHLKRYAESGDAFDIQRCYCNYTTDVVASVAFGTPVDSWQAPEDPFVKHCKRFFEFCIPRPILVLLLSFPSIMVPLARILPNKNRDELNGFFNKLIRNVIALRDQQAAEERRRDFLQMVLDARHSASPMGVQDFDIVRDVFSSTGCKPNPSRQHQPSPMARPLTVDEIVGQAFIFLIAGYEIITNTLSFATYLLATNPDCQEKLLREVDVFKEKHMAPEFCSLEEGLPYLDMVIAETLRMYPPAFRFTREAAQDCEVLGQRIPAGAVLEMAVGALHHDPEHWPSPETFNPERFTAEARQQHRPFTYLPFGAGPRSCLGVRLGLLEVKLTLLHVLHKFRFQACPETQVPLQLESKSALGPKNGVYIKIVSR

Homo sapiens [4] = species on record: Homo sapiens; test: Inhibitory concentration against U 46619 induced aggregation of human platelet rich plasma(PRP); IA=Inactive; format: functional
Thromboxane-A synthase [5] = target: T1, Thromboxane-A synthase; test: Inhibitory concentration against thromboxane synthase enzyme; IA=Inactive
Homo sapiens [6] = species on record: Homo sapiens; test: Inhibitory concentration against U 46619 induced aggregation of human washed platelets(WP); IA=Inactive; format: functional

| IC50 (Homo sapiens [1]) [nM] | IC50 (Homo sapiens [2]) [nM] | IC50 (Thromboxane-A synthase [3]) [nM] | IC50 (Homo sapiens [4]) | IC50 (Thromboxane-A synthase [5]) | IC50 (Homo sapiens [6]) | SMILES |
| --- | --- | --- | --- | --- | --- | --- |
| 1440 | 7970 | 15 | – | – | – | O=C(O)CCCCCCc1cnccc1CCCNS(=O)(=O)c1ccc(Cl)cc1 |
| 195 | 610 | 43 | – | – | – | O=C(O)CCCCCc1cnccc1CCNS(=O)(=O)c1ccc(Cl)cc1 |
| 220 | 1080 | 66 | – | – | – | O=C(O)CCCCCc1cnccc1CNS(=O)(=O)c1ccc(Cl)cc1 |
| – | – | – | Not Active | Not Active | Not Active | O=C(O)CCCCCCc1cnccc1NS(=O)(=O)c1ccc(Cl)cc1 |
| 36 | 670 | 100 | – | – | – | O=C(O)CCCCCc1cnccc1CCCNS(=O)(=O)c1ccc(Cl)cc1 |
| 94 | 440 | 80 | – | – | – | O=C(O)CCCCCCc1cnccc1CCNS(=O)(=O)c1ccc(Cl)cc1 |
